Measured values as given in patent US20060210479A1 (Dow Global Technologies Inc., priority 2004, published 2006).
Where two headings read alike, the source gives them in different places.

Tests used:
[1] = Solubility of chelate compounds
[2] = tested on: LNCaP cells; test: Adsorption of chelate compounds to cells (HPLC and mass spectrometry); type: cell-based, human; conditions: for Adsorption LNCaP: 50 µM chelate compound, 0, 30 and 90 minutes at 37 °C, % adsorbed relative to time zero
Source text: (§1) As a prerequisite for the understanding of the functional attributes of Tb-PCTMB and Eu-QCTME for diagnostics and therapeutic purposes, and for other uses, it is useful to synthesize a series of chelate compounds that contain structural elements of both PCTMB and QCTME and test these compounds for adsorption and permeability to different cell lines. The first approach was to test for adsorption to a normal cell line (HEK293) and to two epithelial cancer cell lines (LNCaP and Caco-2). The second approach, described in this example, involves testing only the compounds that adsorbed in the cancer cell lines and not in the normal cell lines for permeability. Adsorption and permeability of the compounds to epithelial cancer cell lines and a normal cell line was measured through the detection of the compound by HPLC and mass spectrometry.
(§2) Cell cultures. LNCaP cell line is a human prostate carcinoma. Cells were grown in RPMI 1640 Medium supplemented 10% FBS, 2 mM L-glutamine, glucose (2 g/L) augmented with gentamicin (50 μg/mL), penicillin/streptomycin (100 IU/mL/100 μg/mL) and amphotericin B (2.5 μg/mL). Caco-2 cell line is a human colorectal carcinoma. These cells were grown in Eagle's Minimum Essential Medium supplemented with 20% FBS, Earle's BSS, 2 mM L-glutamine, 1.0 mM sodium pyruvate, 0.1 mM nonessential amino acids augmented with gentamicin (50 μg/mL), penicillin/streptomycin (100 IU/mL/100 μg/mL), and amphotericin B (2.5 μg/mL). The human kidney transformed cells HEK293 were grown in Eagle's Minimum Essential Medium (EMEM) supplemented with 10% (v/v) heat-inactivated fetal bovine serum, sodium pyruvate, nonessential amino acids and antibiotics in a humidified 5% CO2 atmosphere at 37° C. Medium and supplements were purchased from Gibco BRL (Grand Island, N.Y.) and all cell lines were obtained from ATCC.
(§3) Detection of chelate compounds for the determination of adsorption. Cells were grown to confluence in T-150 flasks (about 2×10^7 cells). Before treating with chelate compounds, cells were rinsed twice with warm 10 mM HEPES (Gibco BRL, Grand Island N.Y.), removed from the flask, and transferred to a 50-mL conical tube and centrifuged (400×g) for 5 minutes. The resulting cells were treated with individual chelate compounds with 50 µM of chelate compounds in 10 mM HEPES, pH 7.4, 5 mM KCl, 150 mM NaCl, 0.7 mM NaH2PO4 for 0, 30, and 90 minutes at 37 ° C. After treatment, cells were pelleted by centrifugation and the resulting solution was analyzed by a combination of HPLC and mass spectrometry.

[3] = tested on: HEK293 cells; test: as above; type: cell-based, human; conditions: for Adsorption HEK293: 50 µM chelate compound, 0, 30 and 90 minutes at 37 °C, % adsorbed relative to time zero
Source text: as §1, §2, §3

[4] = tested on: Caco-2 cells; test: as above; type: cell-based, human; conditions: for Adsorption Caco-2: 50 µM chelate compound, 0, 30 and 90 minutes at 37 °C, % adsorbed relative to time zero
Source text: as §1, §2, §3

For `COP(=O)(O)Cc1cccc(CP(=O)(O)OC)n1` [Compound 4, [6-(Hydroxy-methoxy-phosphorylmethyl)-pyridin-2-ylmethyl]-phosphonic acid monomethyl ester], the solubility ([1]; <5% methanol, ethanol, or DMSO) was over 10 mM, the “adsorption in carcinoma cell line LNCaP” value [2] was “adsorbed” and the “Adsorption LNCaP” value [2] was “++ (++ = 21-40%)”. The “adsorption in normal cells (HEK293)” value [3] was “adsorbed”, the “Adsorption HEK293” value [3] was “++ (++ = 21-40%)” and the “adsorption in carcinoma cell line Caco-2” value [4] was “adsorbed”. The “Adsorption Caco-2” value [4] was “++ (++ = 21-40%)”.

With `COP(=O)(O)Cc1cc(CP(=O)(O)OC)cc(CP(=O)(O)OC)c1` [Compound 7, [3,5-Bis-(Methoxy-hydroxy-phosphorylmethyl)-benzyl]-phosphonic acid monomethyl ester] the solubility ([1]; <5% methanol, ethanol, or DMSO) was over 10 mM, the “adsorption in carcinoma cell line LNCaP” value [2] was “did not adsorb” and the “Adsorption LNCaP” value [2] was 0 (0 = 0-10%). The “adsorption in normal cells (HEK293)” value [3] was “did not adsorb”, the “Adsorption HEK293” value [3] was 0 (0 = 0-10%) and the “adsorption in carcinoma cell line Caco-2” value [4] was “did not adsorb”. For the same compound, the “Adsorption Caco-2” value [4] was 0 (0 = 0-10%).

With `Cc1c(CN(C)C)c(C)c(CN(C)C)c(C)c1CN(C)C` [Compound 16, (3,5-Bis-dimethylaminomethyl-2,4,6-trimethyl-benzyl)-dimethyl-amine] the solubility ([1]; <5% methanol, ethanol, or DMSO) was over 10 mM, the “Adsorption LNCaP” value [2] was 0 (0 = 0-10%) and the “Adsorption HEK293” value [3] was 0 (0 = 0-10%). The “Adsorption Caco-2” value [4] was 0 (0 = 0-10%).

In the case of `CCOP(=O)(O)Cc1cccc(CP(=O)(O)OCC)n1` [Compound 5, [6-(Hydroxy-ethoxy-phosphorylmethyl)-pyridin-2-ylmethyl]-phosphonic acid monoethyl ester], the solubility ([1]; <5% methanol, ethanol, or DMSO) is reported as over 10 mM, the “Adsorption LNCaP” value [2] is reported as “+ (+ = 11-20%)” and the “Adsorption HEK293” value [3] is reported as “+ (+ = 11-20%)”. For the same compound, the “Adsorption Caco-2” value [4] was 0 (0 = 0-10%).

For `CCN(CC)CCCN(CC)CCCN(CC)CC` [Compound 23, N-(3-Diethylamino-propyl)-N,N′,N′-triethyl-propane-1,3-diamine], the solubility ([1]; <5% methanol, ethanol, or DMSO) was over 10 mM, the “adsorption in carcinoma cell line LNCaP” value [2] was “adsorbed” and the “Adsorption LNCaP” value [2] was “+ (+ = 11-20%)”. The “adsorption in normal cells (HEK293)” value [3] was “adsorbed”, the “Adsorption HEK293” value [3] was “+ (+ = 11-20%)” and the “adsorption in carcinoma cell line Caco-2” value [4] was “adsorbed”. For the same compound, the “Adsorption Caco-2” value [4] was “++ (++ = 21-40%)”.

In the case of `COP(=O)(O)CNCCCN(CCCNCP(=O)(O)OC)CP(=O)(O)OC` [Compound 19, [(Bis-{3-[(hydroxy-methoxy-phosphorylmethyl)-amino]-propyl}-amino)-methyl]-phosphonic acid monomethyl ester], the solubility ([1]; <5% methanol, ethanol, or DMSO) is reported as over 10 mM, the “adsorption in carcinoma cell line LNCaP” value [2] is reported as “adsorbed” and the “Adsorption LNCaP” value [2] is reported as “++ (++ = 21-40%)”. For the same compound, the “adsorption in normal cells (HEK293)” value [3] was “adsorbed”, the “Adsorption HEK293” value [3] was “++ (++ = 21-40%)” and the “Adsorption Caco-2” value [4] was “++ (++ = 21-40%)”. The “adsorption in carcinoma cell line Caco-2” value ([4]; Caco-2) was “adsorbed”.

With `CN(C)Cc1cc(CN(C)C)cc(CN(C)C)c1` [Compound 13, (3,5-Bis-dimethylaminomethyl-benzyl)-dimethylamine] the solubility ([1]; <5% methanol, ethanol, or DMSO) was over 10 mM, the “Adsorption LNCaP” value [2] was 0 (0 = 0-10%) and the “Adsorption HEK293” value [3] was 0 (0 = 0-10%). For the same compound, the “Adsorption Caco-2” value [4] was 0 (0 = 0-10%).

In the case of `CCOP(=O)(O)CNCCCN(CCCNCP(=O)(O)OCC)CP(=O)(O)OCC` [Compound 20, [(Bis-{3-[(ethoxy-hydroxy-phosphorylmethyl)-amino]-propyl}-amino)-methyl]-phosphonic acid monoethyl ester], the solubility ([1]; <5% methanol, ethanol, or DMSO) is reported as over 10 mM, the “adsorption in carcinoma cell line LNCaP” value [2] is reported as “adsorbed” and the “Adsorption LNCaP” value [2] is reported as “++ (++ = 21-40%)”. For the same compound, the “adsorption in normal cells (HEK293)” value [3] was “adsorbed”, the “Adsorption HEK293” value [3] was “++ (++ = 21-40%)” and the “Adsorption Caco-2” value [4] was “++ (++ = 21-40%)”. For the same compound, the “adsorption in carcinoma cell line Caco-2” value ([4]; Caco-2) was “adsorbed”.

With `CCOP(=O)(O)Cc1c(C)c(CP(=O)(O)OCC)c(C)c(CP(=O)(O)OCC)c1C` [Compound 11, [3,5-Bis-(Ethoxy-hydroxy-phosphorylmethyl)-2,4,6-trimethyl-benzyl]-phosphonic acid monoethyl ester] the solubility ([1]; <5% methanol, ethanol, or DMSO) was over 10 mM, the “Adsorption LNCaP” value [2] was 0 (0 = 0-10%) and the “Adsorption HEK293” value [3] was 0 (0 = 0-10%). For the same compound, the “Adsorption Caco-2” value [4] was 0 (0 = 0-10%).

In the case of `CCCCN(CCCC)Cc1cc(CN(CCCC)CCCC)cc(CN(CCCC)CCCC)c1` [Compound 15, (3,5-Bis-dibutylaminomethyl-benzyl)-dibutyl-amine], the solubility [1] is reported as under 10 mM.

With `COP(=O)(O)Cc1ccc2cc(C)ccc2n1` [Compound 1] the solubility ([1]; <5% methanol, ethanol, or DMSO) was over 10 mM, the “adsorption in carcinoma cell line LNCaP” value [2] was “did not adsorb” and the “Adsorption LNCaP” value [2] was 0 (0 = 0-10%). For the same compound, the “adsorption in normal cells (HEK293)” value [3] was “did not adsorb”, the “Adsorption HEK293” value [3] was 0 (0 = 0-10%) and the “adsorption in carcinoma cell line Caco-2” value [4] was “did not adsorb”. The “Adsorption Caco-2” value [4] was 0 (0 = 0-10%).

`CCCCN(CCCC)Cc1c(C)c(CN(CCCC)CCCC)c(C)c(CN(CCCC)CCCC)c1C` [Compound 18, (3,5-Bis-dibutylaminomethyl-2,4,6-trimethyl-benzyl)-dibutyl-amine] showed a solubility [1] of under 10 mM.

In the case of `COP(=O)(O)Cc1c(C)c(CP(=O)(O)OC)c(C)c(CP(=O)(O)OC)c1C` [Compound 10, [3,5-Bis-(Methoxy-hydroxy-phosphorylmethyl)-2,4,6-trimethyl-benzyl]-phosphonic acid monomethyl ester], the solubility ([1]; <5% methanol, ethanol, or DMSO) is reported as over 10 mM, the “adsorption in carcinoma cell line LNCaP” value [2] is reported as “did not adsorb” and the “Adsorption LNCaP” value [2] is reported as 0 (0 = 0-10%). For the same compound, the “adsorption in normal cells (HEK293)” value [3] was “did not adsorb”, the “Adsorption HEK293” value [3] was 0 (0 = 0-10%) and the “adsorption in carcinoma cell line Caco-2” value [4] was “did not adsorb”. The “Adsorption Caco-2” value [4] was 0 (0 = 0-10%).

Compound `CCN(CC)Cc1c(C)c(CN(CC)CC)c(C)c(CN(CC)CC)c1C` [Compound 17, (3,5-Bis-diethylaminomethyl-2,4,6-trimethyl-benzyl)-diethyl-amine] has a solubility [1] of under 10 mM.

In the case of `CCCCOP(=O)(O)Cc1cccc(CP(=O)(O)OCCCC)n1` [Compound 6, [6-(Hydroxy-butoxy-phosphorylmethyl)-pyridin-2-ylmethyl]-phosphonic acid monobutyl ester], the solubility ([1]; <5% methanol, ethanol, or DMSO) is reported as over 10 mM, the “adsorption in carcinoma cell line LNCaP” value [2] is reported as “adsorbed” and the “Adsorption LNCaP” value [2] is reported as “+++ (+++ = 41-60%)”. The “adsorption in normal cells (HEK293)” value [3] was “adsorbed”, the “Adsorption HEK293” value [3] was “+++ (+++ = 41-60%)” and the “adsorption in carcinoma cell line Caco-2” value [4] was “adsorbed”. For the same compound, the “Adsorption Caco-2” value [4] was “+++ (+++ = 41-60%)”.
